# Reference: patent US5698575A, “Chromone compounds, pharmaceutical compositions containing the same, and use of the same” (Kureha Chemical Industry Co., Ltd., priority 1995, dated 1997)
# Experiments:
# [1] = system: Crj:CD-1(ICR) mice; assay: Acute toxicity of chromone derivative, oral, mice; assay type: in vivo, mouse; settings: male mice, 500 mg/kg orally
# Protocol: (§1) The acute toxicity of the chromone derivative of the present invention was evaluated, for Crj:CD-1(ICR) mice (male; 6 weeks old) and Wistar rat (male; 6 weeks old). […] In the experiments as above, two animals were used for each group.
# [2] = system: Wistar rat; assay: Acute toxicity of chromone derivative, oral, rats; assay type: in vivo; settings: male rats, 500 mg/kg orally
# Protocol: as §1
# [3] = system: Mouse melanoma (B16-BL6) cells; assay: Antitumor activity to mouse melanoma-cells-implanted mouse; assay type: in vivo; settings: 100 mg/kg orally once a day for 13 days, C57BL/6N mice
# Protocol: Mouse melanoma (B16-BL6) cells were subcutaneously implanted in the amount 1×10^6 cells in C57BL/6N mice (6 weeks old, male) at the axillary fossa. From the day after the implantation, 2-pyrrolylthiochromone was orally administered once a day for 13 days. The composition to be administered was preparedby dissolving 2-pyrrolylthiochromone powder in sesame oil, and administered at the dose of 100 mg of the compound per 1 kg of the mouse body weight. The amount of sesame oil administered was 10 ml/kg of the mouse body weight. To the control group, only sesame oil was administered. At the next day of the last administration day, the mice were sacrificed, and the weight of the tumor was measured. For the control group where the present compound was not administered, five mice were used, whereas 6 mice were used for the group where the present compound was administered.
SMILES,change in general state and body weight in comparison with the control group ([1]; observed for 7 days),remarkable toxicity ([1]; observed for seven days),change in general state and body weight in comparison with the control group ([2]; observed for 7 days),remarkable toxicity ([2]; observed for seven days),decrease in the body weight due to the administration [3],"inhibitory activity for the tumor growth (tumor weight) in comparison with the control group ([3]; B16-BL6 subcutaneous, FIG. 3) [%]"
"COc1cc(OC)c2c(=O)cc(-n3cnc4ccccc43)oc2c1 [2-benzimidazolyl-5,7-dimethoxychromone]",no change was observed,no remarkable toxicity,no change was observed,no remarkable toxicity,,
O=c1cc(-n2cccc2)sc2ccccc12 [2-pyrrolylthiochromone],,,,,not observed,36.7
